Laboratory results taken from the NIST ThermoML archive (doi:10.1021/acs.jced.8b01135).
± gives the expanded uncertainty stated by the source.

Assay: xn = mol fraction of the nth substance listed
Settings: 102 kPa, Liquid; for speed of sound: Frequency=3 MHz, Single path-length method; for mass density: Vibrating tube method; for viscosity: Concentric cylinders viscometry

CCCCCCCC1CCCCC1 [heptylcyclohexane] + CCCCCCCCCCCC
Settings | mass density, 288.15 K [kg/m3] | mass density, 293.15 K [kg/m3] | mass density, 298.15 K [kg/m3] | mass density, 303.15 K [kg/m3] | speed of sound, 288.15 K [m/s] | speed of sound, 293.15 K [m/s] | speed of sound, 298.15 K [m/s] | speed of sound, 303.15 K [m/s] | viscosity, 293.15 K [mPa·s] | viscosity, 303.15 K [mPa·s]
x1 = 0.1002 | 758.6 ± 0.71 | 754.98 ± 0.71 | 751.36 ± 0.71 | 747.74 ± 0.71 | 1324.4 ± 0.8 | 1304.9 ± 0.8 | 1285.5 ± 0.8 | 1266.3 ± 0.8 | 1.57 ± 0.02 | 1.33 ± 0.02
x1 = 0.201 | 764.82 ± 0.71 | 761.22 ± 0.71 | 757.61 ± 0.71 | 754.01 ± 0.71 | 1331.8 ± 0.8 | 1312.4 ± 0.8 | 1293.1 ± 0.8 | 1273.9 ± 0.8 | 1.67 ± 0.02 | 1.41 ± 0.02
x1 = 0.3 | 771.01 ± 0.71 | 767.42 ± 0.71 | 763.84 ± 0.71 | 760.25 ± 0.71 | 1339.3 ± 0.8 | 1319.9 ± 0.8 | 1300.8 ± 0.8 | 1281.8 ± 0.8 | 1.76 ± 0.02 | 1.48 ± 0.02
x1 = 0.3998 | 777.16 ± 0.71 | 773.59 ± 0.71 | 770.01 ± 0.71 | 766.42 ± 0.71 | 1346.8 ± 0.8 | 1327.3 ± 0.8 | 1308 ± 0.8 | 1288.8 ± 0.8 | 1.87 ± 0.02 | 1.57 ± 0.02
x1 = 0.5002 | 783.44 ± 0.71 | 779.88 ± 0.71 | 776.32 ± 0.71 | 772.75 ± 0.71 | 1354.4 ± 0.8 | 1335.1 ± 0.8 | 1316 ± 0.8 | 1297 ± 0.8 | 1.99 ± 0.02 | 1.66 ± 0.02
x1 = 0.5999 | 789.63 ± 0.71 | 786.08 ± 0.71 | 782.53 ± 0.71 | – | 1362 ± 0.8 | 1342.8 ± 0.8 | 1323.6 ± 0.8 | 1304.7 ± 0.8 | 2.12 ± 0.02 | 1.74 ± 0.02
x1 = 0.6998 | 795.81 ± 0.71 | 792.27 ± 0.71 | 788.73 ± 0.71 | – | 1369.8 ± 0.8 | 1350.4 ± 0.8 | 1331.1 ± 0.8 | 1312.1 ± 0.8 | 2.26 ± 0.02 | 1.85 ± 0.02
x1 = 0.8001 | 802.09 ± 0.71 | 798.57 ± 0.71 | 795.04 ± 0.71 | – | 1377.6 ± 0.9 | 1358.3 ± 0.9 | 1339.3 ± 0.9 | 1320.3 ± 0.9 | 2.42 ± 0.02 | 1.97 ± 0.02
x1 = 0.8998 | 808.24 ± 0.71 | 804.73 ± 0.71 | 801.21 ± 0.71 | – | 1385.6 ± 0.9 | 1366.2 ± 0.9 | 1346.9 ± 0.9 | 1327.9 ± 0.9 | 2.6 ± 0.02 | 2.11 ± 0.02
x1 = 1 | 814.51 ± 0.71 | 811 ± 0.71 | 807.49 ± 0.71 | – | 1393.6 ± 0.9 | 1374.2 ± 0.9 | 1355.1 ± 0.9 | 1336.1 ± 0.9 | 2.8 ± 0.02 | 2.25 ± 0.02
